Test in all cases: growth of human tumour cells (NCI), 48 h
The test system of test [1] is NCI-H460.
The subject of test [2] is SK-MEL-28.
The test system of test [3] is Malme-3M.
Test [4] concerns U-251.
Test [5] deals with UACC-257.
The test system of test [6] is M14.
Test [7] relates to OVCAR-8.
Test [8] has as its system TK-10.
Test [9] deals with NCI-H23.
In test [10] the test system is UO-31.
Test [11] relates to HT-29.
The subject of test [12] is OVCAR-3.
Test [13] concerns RPMI-8226.
Test [14] concerns HCT-116.
The test system of test [15] is SF-268.
Test [16] concerns HOP-92.
In test [17] the test system is HCT-15.
The test system of test [18] is SW-620.
Test [19] has as its system SF-295.

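Cultured in 96-well plates, cells were exposed to test compound for 48 hours across five concentrations. GI50 = concentration required for 50% inhibition of growth.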 The source made the active and inactive calls. Cut-off read from the data, not from the text of the source: active = GI50 up to about 1.1 µM and inactive = higher. Where only a bound is given, the exact number is not on record here.

As to `O=C(c1ccc(Cl)cc1)c1ccc(OCC(=O)N2CCN(c3ccccc3)CC2)cc1`, the GI50 in test [1] was > 100 µM (inactive); in test [2] it was > 100 µM (inactive); in test [3], > 100 µM (inactive); in test [4] it was > 100 µM (inactive); in test [5], 61 µM (inactive); in test [6], > 100 µM (inactive). Also, the GI50 in test [7] was > 100 µM (inactive); in test [8], > 100 µM (inactive); in test [9], 53.7 µM (inactive); in [10], > 100 µM (inactive); in test [11], > 100 µM (inactive); in test [12], > 100 µM (inactive). For the same compound, the GI50 is > 100 µM (inactive) in [13]; > 100 µM (inactive) in test [14]; > 100 µM (inactive) in test [15]; > 100 µM (inactive) in [16]; over 100 µM in test [17]; > 100 µM (inactive) in test [18]. Besides, the GI50 in [19] is > 100 µM (inactive).
As to `O=C1OCC2=C1C(c1ccc3c(c1)OCO3)c1cc3c(cc1O2)OCO3` (stereo not drawn), the GI50 in [1] is 0.522 µM (active); in test [2] it was 1.72 µM (inactive); in [3], 3.1 µM (inactive); in test [4] it was 0.583 µM (active); in test [5] it was 5.13 µM (inactive); in test [6], 0.369 µM (active). Further, the GI50 is 1.11 µM (active) in test [7]; 5.81 µM (inactive) in [8]; 1.29 µM (inactive) in test [9]; 1.59 µM (inactive) in test [10]; 0.346 µM (active) in test [11]; 2.72 µM (inactive) in [12]. The GI50 in [13] was 0.378 µM (active); in test [14], 0.436 µM (active); in test [15], 1.94 µM (inactive); in test [16], 14.4 µM (inactive); in test [17], 0.346 µM; in [18], 0.406 µM (active). Further, the GI50 in test [19] was 3.03 µM (inactive).
On to `CCOC(=O)c1sc2c(c1OC(=O)c1cccs1)c(=O)n(-c1ccccc1)c(=S)n2-c1ccccc1`, for which the GI50 in test [1] is 3.63 µM (inactive); in test [2] it was 11.8 µM (inactive); in test [3], 12.9 µM (inactive); in test [4] it was 12.2 µM (inactive); in test [5], 27.4 µM (inactive); in test [6], 12.4 µM (inactive). The GI50 in test [7] is 18.2 µM (inactive); in test [8] it was 25 µM (inactive); in test [9] it was 15.8 µM (inactive); in test [10], 0.175 µM (active); in test [11] it was 3.9 µM (inactive); in test [12] it was 24.7 µM (inactive). Moreover, the GI50 in test [13] is 7.55 µM (inactive); in test [14], 5.3 µM (inactive); in test [15] it was 29.6 µM (inactive); in test [16] it was 24.5 µM (inactive); in [17] it was 14 µM; in test [18], 19.3 µM (inactive). Also, the GI50 in test [19] is 53.2 µM (inactive).
Turning to `COc1ccc(C(=O)C(c2ccc(OC)cc2)C2(O)C(=O)Nc3c(Cl)cc(Cl)cc32)cc1` (stereo not drawn), the GI50 in test [1] is 20.7 µM (inactive); in test [2], 22.3 µM (inactive); in test [3] it was 15.5 µM (inactive); in test [4], 33.1 µM (inactive); in test [5], 17.3 µM (inactive); in test [6], 16.9 µM (inactive). The GI50 is 23.7 µM (inactive) in test [7]; 22.5 µM (inactive) in test [8]; 19.5 µM (inactive) in test [9]; 27.7 µM (inactive) in test [10]; 19.4 µM (inactive) in test [11]; 22.8 µM (inactive) in test [12]. Besides, the GI50 in test [13] is 11.9 µM (inactive); in test [15], 33.8 µM (inactive); in test [16] it was 15.3 µM (inactive); in test [17] it was 21.5 µM; in test [18], 17.6 µM (inactive); in test [19], 19.3 µM (inactive).
Regarding `CCCCCCCC(=O)NCC(O)CNC(=O)CCCCCCC`, the GI50 in test [1], in test [3], in test [4], in test [5], in test [6] and in [7] was > 100 µM (inactive) in each case. The GI50 in test [8], in test [9], in [10], in test [11], in test [12] and in [13] was > 100 µM (inactive) each time. Moreover, the GI50 in test [14] is > 100 µM (inactive); in test [15], > 100 µM (inactive); in test [16], > 100 µM (inactive); in [17] it was over 100 µM; in test [18], > 100 µM (inactive); in test [19], > 100 µM (inactive).
As to `CCOC(=O)NC(=O)c1cn(CCN2CCN(C(=O)NCCCCCCNC(=O)N3CCN(CCn4cc(C(=O)NC(=O)OCC)c(=O)[nH]c4=O)CC3)CC2)c(=O)[nH]c1=O`, the GI50 in test [1], in [2], in test [3], in test [4], in test [5] and in test [6] was > 100 µM (inactive) in each case. Moreover, the GI50 in [7], in [8], in test [9], in [10], in [11] and in test [12] was > 100 µM (inactive) throughout. Further, the GI50 in test [13] is > 100 µM (inactive); in test [14] it was > 100 µM (inactive); in test [15], > 100 µM (inactive); in test [16], > 100 µM (inactive); in test [17] it was over 100 µM; in test [18], > 100 µM (inactive). Moreover, the GI50 in test [19] is > 100 µM (inactive).
Regarding `O=C1C=C(c2c(O)ccc3ccccc23)c2cc(O)ccc2C1=O`, the GI50 in [1] was 20.3 µM (inactive); in test [2] it was 20.7 µM (inactive); in test [3], 19.2 µM (inactive); in [4], 14.8 µM (inactive); in test [5] it was 17.9 µM (inactive); in test [6], 16.4 µM (inactive). Besides, the GI50 in test [7] is 11.4 µM (inactive); in test [8], 20.9 µM (inactive); in test [9], 15.1 µM (inactive); in test [10], 19.6 µM (inactive); in test [11] it was 25.3 µM (inactive); in test [12] it was 10.7 µM (inactive). Besides, the GI50 is 4.47 µM (inactive) in [13]; 16 µM (inactive) in test [14]; 16.3 µM (inactive) in test [15]; 16.1 µM (inactive) in test [16]; 16.7 µM in test [17]; 18.2 µM (inactive) in [18]. Also, the GI50 in test [19] was 18.5 µM (inactive).
`CCN(CC)CC(C(=O)Nc1c(C)cccc1C)/C(C)=N/NC(N)=S` (stereo not drawn): the GI50 in [1], in [2], in [3], in test [4], in [5] and in [6] was > 100 µM (inactive) in each case. Besides, the GI50 in test [7], in test [8], in [9], in test [10], in test [11] and in [12] was > 100 µM (inactive) throughout. Moreover, the GI50 in test [13], in test [14], in test [15], in [16], in test [18] and in [19] was > 100 µM (inactive) throughout.
Regarding `O=C1OC(=O)C2C3CCC(O3)C12` (stereo not drawn), the GI50 in [1], in [2], in test [3], in test [4], in [5] and in [6] was > 100 µM (inactive) each time. Further, the GI50 in test [7], in test [8], in test [9], in test [10], in test [11] and in test [12] was > 100 µM (inactive) throughout. The GI50 in [13], in test [14], in test [15], in test [16], in test [18] and in test [19] was > 100 µM (inactive) each time.
Consider `Cc1cc2c(cc1C)[n+]([O-])c(-c1c(Cl)cccc1Cl)c(N)[n+]2[O-]`, for which the GI50 is 30.3 µM (inactive) in [1]; 28.2 µM (inactive) in test [2]; 31.1 µM (inactive) in test [3]; 33.3 µM (inactive) in test [4]; 24.6 µM (inactive) in test [5]; 33 µM (inactive) in test [6]. The GI50 in [7] is 38.8 µM (inactive); in test [8] it was > 100 µM (inactive); in test [9], 24.1 µM (inactive); in test [10], 30.3 µM (inactive); in test [11], 39.6 µM (inactive); in test [12], 28.2 µM (inactive). The GI50 in [13] was 67.5 µM (inactive); in test [15] it was 32.9 µM (inactive); in [16], > 100 µM (inactive); in [17] it was 28.4 µM; in [18], 35.1 µM (inactive); in [19] it was 42.5 µM (inactive).
With `COC1OC(C)C(OC(=O)C(C)(C)C)C(C)(O)C1O` (stereo not drawn), the GI50 in test [1], in [2], in test [3], in test [4], in test [5] and in test [6] was > 100 µM (inactive) in each case. Further, the GI50 in test [7], in test [8], in [9], in test [11], in test [12] and in test [13] was > 100 µM (inactive) in each case. Moreover, the GI50 is > 100 µM (inactive) in test [14]; > 100 µM (inactive) in test [15]; > 100 µM (inactive) in [16]; over 100 µM in test [17]; > 100 µM (inactive) in test [18]; > 100 µM (inactive) in test [19].

(Values after ChEMBL document CHEMBL1201862, “PubChem BioAssay data set” (2004).)
